Data published in ChEMBL document CHEMBL4017541, “Membrane-Active Hydantoin Derivatives as Antibiotic Agents” (J Med Chem, 2017).
≈ marks a conversion by molar mass, not a printed value. Calls of active or inactive are those of the source. No cut-off for these calls is given here.

What was measured:
[1] = system: Staphylococcus aureus; assay: Antimicrobial activity against methicillin resistant Staphylococcus aureus ATCC 33591 after 16 hrs; assay type: functional; conditions: ATCC 33591, 16 h
[2] = system: Pseudomonas aeruginosa; assay: Antimicrobial activity against Pseudomonas aeruginosa ATCC 27853 after 16 hrs; assay type: functional; conditions: ATCC 27853, 16 h
[3] = system: Klebsiella pneumoniae; assay: Antimicrobial activity against Klebsiella pneumoniae ATCC 13383 after 16 hrs; assay type: functional; conditions: ATCC 13383, 16 h
[4] = Retention time of compound by HPLC analysis
[5] = system: Escherichia coli; assay: Antimicrobial activity against Escherichia coli ATCC 25922 after 16 hrs; assay type: functional; conditions: ATCC 25922, 16 h
[6] = system: Enterococcus faecalis; assay: Antimicrobial activity against vancomycin resistant Enterococcus faecalis ATCC 700802 after 16 hrs; assay type: functional; conditions: ATCC 700802, 16 h
[7] = system: Staphylococcus epidermidis; assay: Antimicrobial activity against methicillin resistant Staphylococcus epidermidis RP62A after 16 hrs; assay type: functional
[8] = Selectivity index, ratio of HC50 for mouse RBC to MIC for methicillin resistance Staphylococcus aureus ATCC 33591
[9] = system: Escherichia coli; assay: Bactericidal activity against Escherichia coli ATCC 25922 at 4 ug/ml after 60 mins by time kill analysis; assay type: functional
[10] = system: Staphylococcus aureus; assay: Bactericidal activity against methicillin resistance Staphylococcus aureus ATCC 33591 at 25 ug/ml after 10 mins by time kill analysis; assay type: functional
[11] = system: Staphylococcus aureus; assay: Antibacterial activity against methicillin resistant Staphylococcus aureus ATCC 33591 infected in Wistar rat assessed as reduction in lung inflammation at 10 mg/kg, iv treated 24 hrs post infection measured after 5 days by hematoxylin/ eosin staining based microscopic analysis; assay type: functional, organism-based
[12] = system: Escherichia coli; assay: Bactericidal activity against Escherichia coli ATCC 25922 at 25 to 50 ug/ml after 30 mins by time kill analysis; assay type: functional
[13] = system: Staphylococcus aureus; assay: Antibacterial activity against methicillin resistance Staphylococcus aureus ATCC 33591 infected in Wistar rat assessed as reduction in bacterial load in bronchoalveolar lavage of lungs at 10 mg/kg, iv treated 24 hrs post infection measured after 3 days relative to control; assay type: functional; design: scale not given: the % may be the effect or the level left
[14] = system: Escherichia coli; assay: Induction of membrane disruption in Escherichia coli ATCC 25922 at 5 ug/ml after 2 hrs by propidium iodide/4', 6'-diamidino-2-phenylindole dihydrochloride dye based fluorescence microscopy; assay type: functional
[15] = system: Staphylococcus aureus; assay: Antibacterial activity against methicillin resistance Staphylococcus aureus ATCC 33591 after 14 serial passage at 0.5 times MIC after 16 hrs; assay type: functional
[16] = system: Staphylococcus aureus; assay: Bactericidal activity against methicillin resistance Staphylococcus aureus ATCC 33591 at 2 ug/ml after 60 mins by time kill analysis; assay type: functional
[17] = system: Staphylococcus aureus; assay: Induction of membrane disruption in methicillin resistance Staphylococcus aureus ATCC 33591 at 5 ug/ml after 2 hrs by propidium iodide/4', 6'-diamidino-2-phenylindole dihydrochloride dye based fluorescence microscopy; assay type: functional
[18] = system: Staphylococcus aureus; assay: Antibacterial activity against methicillin resistant Staphylococcus aureus ATCC 33591 infected in Wistar rat assessed as reduction in lung inflammation at 10 mg/kg, iv treated 24 hrs post infection measured after 3 days by hematoxylin/ eosin staining based microscopic analysis; assay type: functional, organism-based
[19] = system: Staphylococcus aureus; assay: Antibacterial activity against methicillin resistance Staphylococcus aureus ATCC 33591 infected in Wistar rat assessed as reduction in bacterial load in bronchoalveolar lavage of lungs at 10 mg/kg, iv treated 24 hrs post infection measured after 5 days relative to control; assay type: functional; design: scale not given: the % may be the effect or the level left
[20] = system: HCT-116; assay: Cytotoxicity against human HCT116 cells; assay type: cell-based

Structure (SMILES)	MIC [1] [µg/mL]	MIC [2] [µg/mL]	MIC [3] [µg/mL]	Retention time [4] [min]	MIC [5] [µg/mL]	MIC [6] [µg/mL]	MIC [7] [µg/mL]	Selectivity Index [8]	Activity [9]	Activity [10]	Activity [11]	Activity [12]	Activity [13] [%]	Activity [14]	Activity [15]	Activity [16]	Activity [17]	Activity [18]	Activity [19] [%]	IC50 [20] [µg/mL]
CCCCCCCCCC(=O)N[C@@H](CCCCN)CN1CC(=O)N(c2ccc(OC)cc2)C1=O	> 50	> 50	> 50	< 26	> 50	> 50	> 50													
CCCCCCCCCC(=O)N[C@@H](CCCCN)CN1CC(=O)N(CCCC)C1=O	> 50	> 50	> 50	< 26	> 50	> 50	> 50													
CCCCCCCCCCCC(=O)N[C@@H](Cc1ccccc1)CN1CC(=O)N(c2cccc(Cl)c2)C1=O	> 50	> 50	> 50	< 26	> 50	> 50	> 50													
CCCCCCCCCCCC(=O)N[C@@H](CCCCN)CN1CC(=O)N(CCCC)C1=O	12.5 (≈ 27.6 µM)	25 (≈ 55.2 µM)	12.5 (≈ 27.6 µM)	< 26	6.25 (≈ 13.8 µM)	25 (≈ 55.2 µM)	25 (≈ 55.2 µM)	6.4												
CCCCCCCCCCCC(=O)N[C@@H](CCCCN)CN1CC(=O)N(c2cccc(Cl)c2)C1=O	0.5 (≈ 0.986 µM)	1 (≈ 1.97 µM)	0.78 (≈ 1.54 µM)	28.4	1 (≈ 1.97 µM)	0.5 (≈ 0.986 µM)	0.5 (≈ 0.986 µM)	190	Active	Active	Active	Active	70	Active	Active	Active	Active	Active	96	100 (≈ 197 µM)
CCCCCCCCCCCCCC(=O)N[C@@H](CCCCN)CN1CC(=O)N(c2cccc(Cl)c2)C1=O	12.5 (≈ 23.4 µM)	> 50	> 50		> 50	12.5 (≈ 23.4 µM)	12.5 (≈ 23.4 µM)													
CCCCCCCCCCCC(=O)N[C@@H](CCCCN)CN1CC(=O)N(C2CCCCC2)C1=O	6.25 (≈ 13.1 µM)	12.5 (≈ 26.1 µM)	6.25 (≈ 13.1 µM)		6.25 (≈ 13.1 µM)	12.5 (≈ 26.1 µM)	6.25 (≈ 13.1 µM)	16												
CCCCCCCCCCCCCCCC(=O)N[C@@H](CCCCN)CN1CC(=O)N(CC)C1=O	3.12 (≈ 6.49 µM)	> 50	12.5 (≈ 26 µM)	< 26	3.12 (≈ 6.49 µM)	3.12 (≈ 6.49 µM)	3.12 (≈ 6.49 µM)													
CCCCCCCCCCCCCC(=O)N[C@@H](CCCCN)CN1CC(=O)N(C23CC4CC(CC(C4)C2)C3)C1=O		> 50	> 50		> 50	6.25 (≈ 11.2 µM)	3.15 (≈ 5.64 µM)													
CCCCCCCCCC(=O)N[C@@H](CCCCN)CN1CC(=O)N(CC)C1=O	> 50	> 50	> 50	< 26	> 50	> 50	> 50													
CCCCCCCCCCCCCCCC(=O)N[C@@H](CCCCN)CN1CC(=O)N(CCCC)C1=O	6.25 (≈ 12.3 µM)	> 50	> 50		> 50	6.25 (≈ 12.3 µM)	6.25 (≈ 12.3 µM)													
CCCCCCCCCCCCCC(=O)N[C@@H](CCCCN)CN1CC(=O)N(C2CCCCC2)C1=O	3.12 (≈ 6.16 µM)	> 50	6.25 (≈ 12.3 µM)		12.5 (≈ 24.7 µM)	6.25 (≈ 12.3 µM)	6.25 (≈ 12.3 µM)													
CCCCCCCCCCCCCC(=O)N[C@@H](CCCCN)CN1CC(=O)N(c2ccc(OC)cc2)C1=O	6.25 (≈ 11.8 µM)	> 50	25 (≈ 47.1 µM)		6.25 (≈ 11.8 µM)	6.25 (≈ 11.8 µM)	6.25 (≈ 11.8 µM)													
CCCCCCCCCC(=O)N[C@@H](CCCCN)CN1CC(=O)N(C23CC4CC(CC(C4)C2)C3)C1=O	6.25 (≈ 12.4 µM)	12.5 (≈ 24.9 µM)	6.25 (≈ 12.4 µM)		6.25 (≈ 12.4 µM)	12.5 (≈ 24.9 µM)	6.25 (≈ 12.4 µM)	20												
